Results from the supplement of paper PMC10307832.

Key:
Experiment in all cases: relative viability (nuclei count vs DMSO), 5 days (fraction); higher = more cells survive
[1] = compound: COC1=CC=C(C=C1)CN2C=CC3=C2C=C(C=C3)C(=O)NO + CC(C)C[C@H](NC(=O)[C@H](Cc1ccccc1)NC(=O)c1cnccn1)B(O)O [Bortezomib] (partner 0.002 µM)
Method in brief: (§1)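 Lung cancer cell lines, seeded in 1536-well plates, were treated the following day by pin tool with a single drug or with five library-drug doses (not always all listed) in √10 steps on top of a fixed anchor-drug dose. Cells were fixed and nuclei stained in one step after 5 days, and nuclei were counted. Relative viability is the nuclei count for treated wells divided by that for vehicle wells, reported as medians of duplicate plates.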

Veliparib + Phenformin = compound: C[C@]1(c2nc3c(C(N)=O)cccc3[nH]2)CCCN1 [Veliparib] + N=C(N)NC(=N)NCCc1ccccc1 [Phenformin] (partner 250 µM)
Method in brief: as §1

Veliparib + AZD7762 = compound: C[C@]1(c2nc3c(C(N)=O)cccc3[nH]2)CCCN1 [Veliparib] + NC(=O)Nc1cc(-c2cccc(F)c2)sc1C(=O)N[C@H]1CCCNC1 [AZD7762] (partner 0.2 µM)
Method in brief: as §1

[2] = compound: COC1=CC=C(C=C1)CN2C=CC3=C2C=C(C=C3)C(=O)NO + O=C(CCCCCCC(=O)Nc1ccccc1)NO [Vorinostat] (partner 1 µM)
Method in brief: as §1

Row | Cell Line | relative viability ([1]; first compound 0.253 µM) | relative viability ([1]; first compound 0.8 µM) | relative viability ([1]; first compound 2.53 µM) | relative viability ([1]; first compound 8 µM) | relative viability (Veliparib + Phenformin; first compound 0.02 µM) | relative viability (Veliparib + Phenformin; first compound 0.06325 µM) | relative viability (Veliparib + Phenformin; first compound 0.2 µM) | relative viability (Veliparib + Phenformin; first compound 0.6325 µM) | relative viability (Veliparib + Phenformin; first compound 2 µM) | relative viability (Veliparib + AZD7762; first compound 0.06325 µM) | relative viability (Veliparib + AZD7762; first compound 0.2 µM) | relative viability (Veliparib + AZD7762; first compound 0.6325 µM) | relative viability (Veliparib + AZD7762; first compound 2 µM) | relative viability ([2]; first compound 0.253 µM) | relative viability ([2]; first compound 0.8 µM) | relative viability ([2]; first compound 2.53 µM) | relative viability ([2]; first compound 8 µM) | relative viability ([1]; first compound 0.08 µM) | relative viability (Veliparib + AZD7762; first compound 0.02 µM) | relative viability ([2]; first compound 0.08 µM)
1 | NCI-H1734 | 1.03 | 0.91 | 0.898 | 0.725 | 0.358 | 0.379 | 0.383 | 0.33 | 0.455 | 0.529 | 0.529 | 0.536 | 0.642 | 0.882 | 0.779 | 0.731 | 0.658 |  |  | 
2 | BEN | 0.671 | 0.906 | 0.754 | 0.656 | 0.24 | 0.251 | 0.292 | 0.253 | 0.25 | 0.644 | 0.664 | 0.793 | 0.625 | 0.566 | 0.591 | 0.543 | 0.548 | 0.675 | 0.599 | 0.566
3 | NCI-H2126 | 1.09 | 1.15 | 1.12 | 1.05 | 0.556 | 0.535 | 0.519 | 0.498 | 0.541 | 0.975 | 1.03 | 1.07 | 0.834 | 0.815 | 0.812 | 0.807 | 0.702 | 1.06 | 0.957 | 0.79
4 | NCI-H1437 | 0.483 | 0.527 | 0.581 | 0.393 | 0.311 | 0.237 | 0.357 | 0.253 | 0.299 | 1.07 | 1.17 | 1.13 | 1.09 | 0.766 | 0.881 | 0.891 | 1.01 | 0.38 | 0.996 | 0.684
5 | NCI-H322M | 0.971 | 1.27 | 1.23 | 1.26 |  | 0.641 | 0.814 | 0.724 | 0.747 | 0.629 | 0.573 | 0.744 | 0.611 |  | 0.866 | 0.888 | 0.845 |  |  | 
6 | NCI-H1355 | 1.15 | 1.34 | 1.27 | 1.19 |  | 0.425 | 0.46 | 0.423 | 0.442 | 0.685 | 0.726 | 0.684 | 0.739 | 0.695 | 0.65 | 0.625 | 0.589 | 1.1 | 0.733 | 0.223
7 | NCI-H838 | 0.99 | 0.899 | 0.885 | 0.719 | 0.576 | 0.495 | 0.564 | 0.424 | 0.628 | 0.914 | 0.963 | 0.94 | 0.937 | 0.614 | 0.75 | 0.771 | 0.737 |  | 0.998 | 0.285
8 | EPLC-272H | 0.953 | 1.16 | 0.861 | 0.855 | 0.304 | 0.307 | 0.332 | 0.292 | 0.333 | 0.122 | 0.21 | 0.174 | 0.166 | 0.619 | 0.55 | 0.404 | 0.3 | 0.925 |  | 
9 | NCI-H23 | 1.02 | 1.14 | 0.975 | 0.594 | 0.851 | 0.73 | 0.762 | 0.756 | 0.833 | 0.216 | 0.201 | 0.277 | 0.28 | 0.649 | 0.637 | 0.584 | 0.461 | 1.04 | 0.35 | 0.338
10 | EMC-BAC-2 | 1.13 | 1.18 | 1.07 | 0.944 | 0.442 | 0.532 | 0.609 | 0.484 | 0.575 | 1.02 | 1.12 | 1.09 | 1.17 |  | 0.568 | 0.429 | 0.36 | 0.972 | 1.15 | 0.257
11 | NCI-H2405 | 0.924 | 1.02 | 1.01 | 0.961 | 0.388 | 0.371 | 0.411 | 0.393 | 0.308 |  | 0.81 | 0.734 | 0.738 |  | 0.984 | 1.03 | 0.896 | 0.546 | 0.772 | 0.782
12 | NCI-H650 | 0.732 | 0.881 | 0.928 | 0.64 | 0.439 | 0.385 | 0.405 | 0.408 | 0.412 | 0.798 | 1.14 | 0.96 | 0.944 | 0.414 | 0.437 | 0.477 | 0.34 | 0.832 | 1.07 | 0.337
13 | HCC-15 | 1.09 | 1.13 | 1.02 | 0.998 |  | 0.457 | 0.452 | 0.431 | 0.472 | 1.13 | 1.11 | 1.37 | 1.28 | 0.951 | 0.828 | 0.926 | 0.754 | 0.854 | 1.24 | 0.544
14 | PC-14 | 0.726 | 0.954 | 0.956 | 0.937 |  | 0.526 | 0.647 | 0.59 | 0.435 | 0.313 | 0.335 | 0.385 | 0.327 | 0.667 | 0.725 | 0.733 | 0.782 | 0.706 | 0.357 | 0.21
15 | HCC-44 | 0.912 | 0.897 | 0.914 | 0.907 | 0.157 | 0.144 | 0.188 | 0.17 | 0.135 | 0.913 | 0.936 | 0.934 | 1.07 | 1.06 | 1.18 | 1.14 | 1.12 | 0.845 | 1.04 | 1.09
16 | H3255 | 0.623 | 0.733 | 0.739 | 0.894 | 0.365 | 0.367 | 0.36 | 0.322 | 0.329 | 0.893 | 0.816 | 0.756 | 0.857 | 0.739 | 0.842 | 0.849 | 0.731 | 0.73 | 1 | 0.34
17 | RERF-LC-KJ | 1.13 | 1.11 | 1.13 | 1.06 | 0.408 | 0.442 | 0.4 | 0.396 | 0.47 | 0.896 | 0.999 | 0.933 | 1.03 | 0.672 | 0.66 | 0.758 | 0.632 | 1.08 | 1.07 | 0.624
